# Source: article PMC9234961 (Journal of Medicinal Chemistry, 2022)
# Read-outs that look alike come from different tables or passages of the source.
# Tests used:
# kinases (468) [1] = biological target: kinases (468) (Homo sapiens, UniProt O75385); conditions: kinase ULK1 (Entrez ULK1); compound concentration 1000 nM
# kinases (468) [2] = biological target: kinases (468) (Homo sapiens, UniProt O94768); conditions: DRAK2 (STK17B); 1000 nM
# kinases (468) [3] = biological target: kinases (468) (Homo sapiens, UniProt O96013); conditions: PAK4; 1000 nM
# Sequence of kinases (468) (Homo sapiens, UniProt O96013) (O96013 whole entry): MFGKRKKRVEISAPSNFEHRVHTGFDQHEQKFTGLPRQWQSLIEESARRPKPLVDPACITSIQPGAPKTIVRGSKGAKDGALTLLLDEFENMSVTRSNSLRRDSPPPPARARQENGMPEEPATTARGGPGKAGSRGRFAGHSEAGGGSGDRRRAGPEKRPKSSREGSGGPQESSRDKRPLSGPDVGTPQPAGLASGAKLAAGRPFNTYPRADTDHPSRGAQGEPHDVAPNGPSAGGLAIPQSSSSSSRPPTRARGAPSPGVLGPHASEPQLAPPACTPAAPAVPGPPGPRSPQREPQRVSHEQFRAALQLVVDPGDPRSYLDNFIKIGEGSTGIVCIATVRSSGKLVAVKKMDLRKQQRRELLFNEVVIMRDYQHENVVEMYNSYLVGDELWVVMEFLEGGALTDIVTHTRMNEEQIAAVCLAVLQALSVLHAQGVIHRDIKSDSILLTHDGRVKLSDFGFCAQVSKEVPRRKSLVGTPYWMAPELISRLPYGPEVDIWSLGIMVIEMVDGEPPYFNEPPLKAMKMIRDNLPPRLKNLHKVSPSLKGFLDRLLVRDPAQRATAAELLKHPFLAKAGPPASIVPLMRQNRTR
# kinases (468) [4] = biological target: kinases (468) (Homo sapiens, UniProt P00519, E255K); conditions: ABL1(E255K)-phosphorylated; 1000 nM
# kinases (468) [5] = biological target: kinases (468) (Homo sapiens, UniProt P04629); conditions: kinase TRKA (Entrez NTRK1); compound concentration 1000 nM
# kinases (468) [6] = biological target: kinases (468) (Homo sapiens, UniProt P06239); conditions: LCK; 1000 nM
# kinases (468) [7] = biological target: kinases (468) (Homo sapiens, UniProt P06241); conditions: FYN; 1000 nM
# kinases (468) [8] = biological target: kinases (468) (Homo sapiens, UniProt P07947); conditions: kinase YES (Entrez YES1); compound concentration 1000 nM
# kinases (468) [9] = biological target: kinases (468) (Homo sapiens, UniProt P10721); conditions: 1000 nM
# Sequence of kinases (468) (Homo sapiens, UniProt P10721) (P10721 26-976): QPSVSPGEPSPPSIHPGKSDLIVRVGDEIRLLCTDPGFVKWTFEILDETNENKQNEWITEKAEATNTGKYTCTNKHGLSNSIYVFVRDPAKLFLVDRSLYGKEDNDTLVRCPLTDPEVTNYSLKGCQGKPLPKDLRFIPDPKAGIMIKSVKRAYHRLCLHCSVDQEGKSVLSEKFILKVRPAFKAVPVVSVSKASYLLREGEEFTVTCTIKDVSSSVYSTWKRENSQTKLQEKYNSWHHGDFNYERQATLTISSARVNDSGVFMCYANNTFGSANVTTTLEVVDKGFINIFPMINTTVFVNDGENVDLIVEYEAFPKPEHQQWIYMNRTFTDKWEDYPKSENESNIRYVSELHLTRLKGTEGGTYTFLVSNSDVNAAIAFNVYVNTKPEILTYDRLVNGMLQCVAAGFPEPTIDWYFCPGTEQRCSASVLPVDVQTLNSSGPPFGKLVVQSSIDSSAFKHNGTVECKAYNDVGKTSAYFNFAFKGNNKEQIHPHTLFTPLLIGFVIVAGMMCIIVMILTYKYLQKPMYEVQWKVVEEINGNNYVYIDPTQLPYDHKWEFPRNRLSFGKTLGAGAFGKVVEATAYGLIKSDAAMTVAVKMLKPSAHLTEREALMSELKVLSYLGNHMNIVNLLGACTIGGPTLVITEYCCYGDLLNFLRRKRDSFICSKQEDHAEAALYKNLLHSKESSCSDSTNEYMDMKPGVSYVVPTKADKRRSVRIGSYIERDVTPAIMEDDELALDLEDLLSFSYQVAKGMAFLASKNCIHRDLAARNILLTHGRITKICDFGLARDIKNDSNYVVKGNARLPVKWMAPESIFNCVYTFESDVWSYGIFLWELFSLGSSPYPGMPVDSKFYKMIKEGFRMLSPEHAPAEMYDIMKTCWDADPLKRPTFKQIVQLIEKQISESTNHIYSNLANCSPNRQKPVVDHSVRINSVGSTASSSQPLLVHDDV
# kinases (468) [10] = biological target: kinases (468) (Homo sapiens, UniProt P21127); conditions: CDC2L1 (CDK11B); 1000 nM
# kinases (468) [11] = biological target: kinases (468) (Homo sapiens, UniProt P36888, D835Y); conditions: FLT3(D835Y); 1000 nM
# kinases (468) [12] = biological target: kinases (468) (Homo sapiens, UniProt P42336, E545K); conditions: PIK3CA(E545K); 1000 nM
# kinases (468) [13] = biological target: kinases (468) (Homo sapiens, UniProt P46734); conditions: MEK3 (MAP2K3); 1000 nM
# kinases (468) [14] = biological target: kinases (468) (Homo sapiens, UniProt P48729); conditions: CSNK1A1; 1000 nM
# kinases (468) [15] = biological target: kinases (468) (Homo sapiens, UniProt P53667); conditions: LIMK1; 1000 nM
# kinases (468) [16] = biological target: kinases (468) (Homo sapiens, UniProt P53778); conditions: p38-gamma (MAPK12); 1000 nM
# Sequence of kinases (468) (Homo sapiens, UniProt P53778) (P53778 whole entry): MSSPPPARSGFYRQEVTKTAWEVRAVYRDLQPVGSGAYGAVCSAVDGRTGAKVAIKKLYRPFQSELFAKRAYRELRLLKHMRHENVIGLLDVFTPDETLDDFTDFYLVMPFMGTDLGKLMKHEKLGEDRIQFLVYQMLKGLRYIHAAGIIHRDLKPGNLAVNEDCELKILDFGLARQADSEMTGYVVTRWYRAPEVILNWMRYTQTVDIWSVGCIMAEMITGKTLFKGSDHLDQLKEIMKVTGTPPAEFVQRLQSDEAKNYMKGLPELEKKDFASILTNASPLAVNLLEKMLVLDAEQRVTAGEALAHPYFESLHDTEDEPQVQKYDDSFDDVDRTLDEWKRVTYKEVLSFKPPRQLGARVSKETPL
# kinases (468) [17] = biological target: kinases (468) (Homo sapiens, UniProt P54762); conditions: EPHB1; 1000 nM
# kinases (468) [18] = biological target: kinases (468) (Homo sapiens, UniProt P54764); conditions: EPHA4; 1000 nM
# Sequence of kinases (468) (Homo sapiens, UniProt P54764) (P54764 20-986): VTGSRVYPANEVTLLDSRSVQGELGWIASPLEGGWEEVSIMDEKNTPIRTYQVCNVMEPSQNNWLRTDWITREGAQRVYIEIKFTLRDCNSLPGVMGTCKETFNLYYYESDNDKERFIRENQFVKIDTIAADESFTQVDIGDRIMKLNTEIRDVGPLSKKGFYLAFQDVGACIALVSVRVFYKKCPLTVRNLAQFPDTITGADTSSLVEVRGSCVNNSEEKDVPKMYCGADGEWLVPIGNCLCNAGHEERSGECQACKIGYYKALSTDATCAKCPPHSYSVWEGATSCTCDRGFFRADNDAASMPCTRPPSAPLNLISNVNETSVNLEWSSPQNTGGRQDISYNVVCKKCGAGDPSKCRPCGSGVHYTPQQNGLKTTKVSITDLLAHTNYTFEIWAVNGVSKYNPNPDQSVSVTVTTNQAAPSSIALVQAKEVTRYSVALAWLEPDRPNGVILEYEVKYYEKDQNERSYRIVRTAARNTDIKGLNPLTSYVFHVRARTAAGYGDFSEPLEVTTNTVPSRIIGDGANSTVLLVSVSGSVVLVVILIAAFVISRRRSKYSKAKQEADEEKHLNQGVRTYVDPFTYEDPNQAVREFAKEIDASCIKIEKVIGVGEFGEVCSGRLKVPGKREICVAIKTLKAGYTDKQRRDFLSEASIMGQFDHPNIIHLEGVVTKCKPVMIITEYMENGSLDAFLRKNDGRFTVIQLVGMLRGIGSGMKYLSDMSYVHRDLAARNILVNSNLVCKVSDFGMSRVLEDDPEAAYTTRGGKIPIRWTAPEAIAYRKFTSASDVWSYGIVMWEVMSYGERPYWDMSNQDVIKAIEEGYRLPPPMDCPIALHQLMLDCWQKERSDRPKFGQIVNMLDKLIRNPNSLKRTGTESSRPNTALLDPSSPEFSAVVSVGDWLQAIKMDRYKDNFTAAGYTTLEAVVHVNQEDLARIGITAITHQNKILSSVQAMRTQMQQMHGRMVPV
# kinases (468) [19] = biological target: kinases (468) (Homo sapiens, UniProt P57078); conditions: kinase RIPK4 (Entrez RIPK4); compound concentration 1000 nM
# kinases (468) [20] = biological target: kinases (468) (Homo sapiens, UniProt P80192); conditions: MLK1 (MAP3K9); 1000 nM
# Sequence of kinases (468) (Homo sapiens, UniProt P80192) (P80192 whole entry): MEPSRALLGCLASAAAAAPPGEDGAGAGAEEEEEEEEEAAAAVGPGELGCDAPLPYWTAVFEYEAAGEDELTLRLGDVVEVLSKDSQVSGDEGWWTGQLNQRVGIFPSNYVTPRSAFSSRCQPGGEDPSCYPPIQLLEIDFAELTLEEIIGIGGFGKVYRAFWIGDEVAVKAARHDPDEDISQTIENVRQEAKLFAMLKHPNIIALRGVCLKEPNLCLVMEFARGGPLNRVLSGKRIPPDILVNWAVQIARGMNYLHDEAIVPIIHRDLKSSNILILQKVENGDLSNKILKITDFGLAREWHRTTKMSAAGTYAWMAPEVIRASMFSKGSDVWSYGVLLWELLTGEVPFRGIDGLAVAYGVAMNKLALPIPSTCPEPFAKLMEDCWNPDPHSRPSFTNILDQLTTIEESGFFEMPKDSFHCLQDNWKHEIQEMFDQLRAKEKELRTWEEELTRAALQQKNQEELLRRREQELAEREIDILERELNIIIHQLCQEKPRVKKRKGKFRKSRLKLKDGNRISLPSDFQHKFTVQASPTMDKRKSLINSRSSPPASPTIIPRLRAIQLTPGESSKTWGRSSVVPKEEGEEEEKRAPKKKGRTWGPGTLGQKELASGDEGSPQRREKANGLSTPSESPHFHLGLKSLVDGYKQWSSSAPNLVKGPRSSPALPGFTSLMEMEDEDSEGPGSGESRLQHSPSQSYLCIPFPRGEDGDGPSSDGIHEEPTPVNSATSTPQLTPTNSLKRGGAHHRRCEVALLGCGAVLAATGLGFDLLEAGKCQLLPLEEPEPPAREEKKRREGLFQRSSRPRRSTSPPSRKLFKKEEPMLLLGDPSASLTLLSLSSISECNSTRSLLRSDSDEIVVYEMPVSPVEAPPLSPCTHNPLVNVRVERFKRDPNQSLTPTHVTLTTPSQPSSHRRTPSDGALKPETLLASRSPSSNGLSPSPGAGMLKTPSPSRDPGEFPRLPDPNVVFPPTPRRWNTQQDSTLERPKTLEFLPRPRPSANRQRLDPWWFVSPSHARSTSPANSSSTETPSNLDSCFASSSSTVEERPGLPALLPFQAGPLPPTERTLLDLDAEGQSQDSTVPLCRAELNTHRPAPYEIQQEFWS
# kinases (468) [21] = biological target: kinases (468) (Homo sapiens, UniProt Q00526); conditions: CDK3; 1000 nM
# kinases (468) [22] = biological target: kinases (468) (Homo sapiens, UniProt Q07002); conditions: PCTK3 (CDK18); 1000 nM
# kinases (468) [23] = biological target: kinases (468) (Homo sapiens, UniProt Q13153); conditions: PAK1; 1000 nM
# kinases (468) [24] = biological target: kinases (468) (Homo sapiens, UniProt Q16513); conditions: PKN2; 1000 nM
# kinases (468) [25] = biological target: kinases (468) (Homo sapiens, UniProt Q8IYT8); conditions: kinase ULK2 (Entrez ULK2); compound concentration 1000 nM
# Sequence of kinases (468) (Homo sapiens, UniProt Q8IYT8) (Q8IYT8 whole entry): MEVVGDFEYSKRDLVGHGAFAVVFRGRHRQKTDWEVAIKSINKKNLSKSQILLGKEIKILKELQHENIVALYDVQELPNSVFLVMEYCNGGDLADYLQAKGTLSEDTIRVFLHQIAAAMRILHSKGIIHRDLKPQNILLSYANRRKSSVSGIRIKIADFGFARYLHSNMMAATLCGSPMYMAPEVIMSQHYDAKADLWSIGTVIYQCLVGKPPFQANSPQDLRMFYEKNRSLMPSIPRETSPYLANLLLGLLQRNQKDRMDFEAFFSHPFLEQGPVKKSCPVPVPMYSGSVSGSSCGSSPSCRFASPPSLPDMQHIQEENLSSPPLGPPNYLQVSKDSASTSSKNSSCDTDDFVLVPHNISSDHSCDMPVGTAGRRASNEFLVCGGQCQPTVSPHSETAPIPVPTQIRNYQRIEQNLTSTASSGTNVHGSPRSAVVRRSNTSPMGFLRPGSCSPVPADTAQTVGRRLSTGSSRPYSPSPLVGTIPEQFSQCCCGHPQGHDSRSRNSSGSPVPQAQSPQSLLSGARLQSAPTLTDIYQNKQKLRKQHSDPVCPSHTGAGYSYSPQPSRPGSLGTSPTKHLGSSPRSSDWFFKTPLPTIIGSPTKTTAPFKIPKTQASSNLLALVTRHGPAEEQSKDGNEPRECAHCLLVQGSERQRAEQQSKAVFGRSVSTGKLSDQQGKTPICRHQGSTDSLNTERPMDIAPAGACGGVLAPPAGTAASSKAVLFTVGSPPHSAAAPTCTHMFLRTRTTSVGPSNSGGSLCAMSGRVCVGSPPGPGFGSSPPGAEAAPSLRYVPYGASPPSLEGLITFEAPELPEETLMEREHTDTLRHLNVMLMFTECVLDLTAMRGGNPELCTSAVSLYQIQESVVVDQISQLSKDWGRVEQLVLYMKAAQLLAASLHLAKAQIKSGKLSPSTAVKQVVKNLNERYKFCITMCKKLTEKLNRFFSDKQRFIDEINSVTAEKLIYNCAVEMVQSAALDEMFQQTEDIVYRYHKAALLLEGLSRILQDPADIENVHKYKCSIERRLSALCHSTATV
# kinases (468) [26] = biological target: kinases (468) (Homo sapiens, UniProt Q8N4C8); conditions: MINK (MINK1); 1000 nM
# kinases (468) [27] = biological target: kinases (468) (Homo sapiens, UniProt Q96PY6); conditions: NEK1; 1000 nM
# kinases (468) [28] = biological target: kinases (468) (Homo sapiens, UniProt Q99755); conditions: PIP5K1A; 1000 nM
# kinases (468) [29] = biological target: kinases (468) (Homo sapiens, UniProt Q9BRS2); conditions: kinase RIOK1 (Entrez RIOK1); compound concentration 1000 nM
# kinases (468) [30] = biological target: kinases (468) (Homo sapiens, UniProt Q9H422); conditions: HIPK3; 1000 nM
# kinases (468) [31] = biological target: kinases (468) (Homo sapiens, UniProt Q9P2K8, S808G); conditions: GCN2(Kin.Dom.2,S808G) (EIF2AK4); 1000 nM
# kinases (468) [32] = biological target: kinases (468) (Homo sapiens, UniProt Q9UKE5); conditions: kinase TNIK (Entrez TNIK); compound concentration 1000 nM
# kinases (468) [33] = biological target: kinases (468) (Homo sapiens, UniProt Q9UM73, L1196M); conditions: ALK(L1196M); 1000 nM
# kinases (468) [34] = biological target: kinases (468) (Homo sapiens, UniProt Q9Y243); conditions: AKT3; 1000 nM
structure (smiles),measurement,setting,value
C[C@H]1C[C@@H](O)CN(c2ncc(Cl)c(Nc3ccc4c(c3)c3c(c(=O)n4C)OCC(F)(F)[C@H](C4CC4)N3)n2)C1 [CCT373566_9A],Percent Control,kinases (468) [1],93%
same,Percent Control,kinases (468) [2],98%
same,Percent Control,kinases (468) [3],100%
same,Percent Control,kinases (468) [4],99%
same,Percent Control,kinases (468) [5],100%
same,Percent Control,kinases (468) [6],100%
same,Percent Control,kinases (468) [7],100%
same,Percent Control,kinases (468) [8],99%
same,Percent Control,kinases (468) [9]; KIT-autoinhibited,90%
same,Percent Control,kinases (468) [9]; KIT,100%
same,Percent Control,kinases (468) [10],100%
same,Percent Control,kinases (468) [11],90%
same,Percent Control,kinases (468) [12],95%
same,Percent Control,kinases (468) [13],100%
same,Percent Control,kinases (468) [14],100%
same,Percent Control,kinases (468) [15],57%
same,Percent Control,kinases (468) [16],92%
same,Percent Control,kinases (468) [17],99%
same,Percent Control,kinases (468) [18],100%
same,Percent Control,kinases (468) [19],100%
same,Percent Control,kinases (468) [20],100%
same,Percent Control,kinases (468) [21],100%
same,Percent Control,kinases (468) [22],99%
same,Percent Control,kinases (468) [23],100%
same,Percent Control,kinases (468) [24],100%
same,Percent Control,kinases (468) [25],100%
same,Percent Control,kinases (468) [26],87%
same,Percent Control,kinases (468) [27],98%
same,Percent Control,kinases (468) [28],77%
same,Percent Control,kinases (468) [29],78%
same,Percent Control,kinases (468) [30],100%
same,Percent Control,kinases (468) [31],100%
same,Percent Control,kinases (468) [32],94%
same,Percent Control,kinases (468) [33],97%
same,Percent Control,kinases (468) [34],93%
